Data taken from US11225505B2, “Antimicrobial polymyxin derivative compounds” (MONASH UNIVERSITY, priority 2015, dated 2022).
In brackets after ≈: the same amount, converted by molar mass. Where a SMILES comes first, the peptide text is derived from it. Bridges are numbered along the chain shown (N, C = ends). [ ]: non-standard residue; d: D form. The star is where a group is joined. X9 = O=C(c1ccnc(C(F)(F)F)c1)*; X28 = Cc1cc(C(=O)*)cc(Cl)n1; Dab = NCC[C@H](N)C(=O)O; X60 = O=C(c1cnc(Br)s1)*; Abu = CC[C@H](N)C(=O)O; Dap = NC[C@H](N)C(=O)O; X71 = O=C(c1sccc1Cl)*

How the values were obtained:
Type in all cases: cell-based
[1] = system: Acinetobacter baumannii ATCC 17978; settings: ATCC 17978
Method in brief: (§1)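 Lipopeptides (TFA salts) tested against Gram-negative strains by CLSI broth microdilution using cation-adjusted Mueller-Hinton broth; MIC recorded, polymyxin B sulphate as control.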

[2] = system: Klebsiella pneumoniae Kp BM1; settings: Kp BM1
Method in brief: (§2)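 MIC; CLSI broth microdilution; cation-adjusted MH broth; test articles as TFA salts; polymyxin B control; polymyxin-susceptible isolates.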

[3] = system: Enterobacter cloacae FADDI-EC001; settings: FADDI-EC001
Method in brief: as §2

[4] = system: Klebsiella pneumoniae FADDI-KP022; settings: FADDI-KP022
Method in brief: as §1

[5] = system: Acinetobacter baumannii FADDI-AB034; settings: FADDI-AB034
Method in brief: as §1

[6] = system: Pseudomonas aeruginosa FADDI-PA01; settings: FADDI-
Method in brief: as §1

[7] = system: Pseudomonas aeruginosa ATCC 27853; settings: ATCC 27853
Method in brief: as §1

[8] = system: Enterobacter cloacae FADDI-EC006; settings: FADDI-EC006
Method in brief: as §1

[9] = system: Enterobacter cloacae FADDI-EC003; settings: FADDI-EC003
Method in brief: as §1

[10] = system: Klebsiella pneumoniae FADDI-KP032; settings: FADDI-KP032
Method in brief: as §1

[11] = system: Pseudomonas aeruginosa FADDI-PA038; settings: FADDI-PA038
Method in brief: as §1

[12] = system: Pseudomonas aeruginosa FADDI-PA022; settings: FADDI-PA022
Method in brief: as §1

[13] = system: Acinetobacter baumannii FADDI-AB030; assay: microbe, parasite or virus in culture; settings: FADDI-AB030
Method in brief: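 Lipopeptide TFA salts tested against the multidrug-resistant clinical isolate by CLSI (M100-S24) broth microdilution in cation-adjusted Mueller-Hinton broth, with polymyxin B sulphate as control; MIC read.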

Row | Structure (SMILES) | Minimum inhibitory concentration [1] [mg/L] | Minimum inhibitory concentration [2] [mg/L] | Minimum inhibitory concentration [3] [mg/L] | Minimum inhibitory concentration [4] [mg/L] | Minimum inhibitory concentration [5] [mg/L] | Minimum inhibitory concentration [6] [mg/L] | Minimum inhibitory concentration [7] [mg/L] | Minimum inhibitory concentration [8] [mg/L] | Minimum inhibitory concentration [9] [mg/L] | Minimum inhibitory concentration [10] [mg/L] | Minimum inhibitory concentration [11] [mg/L] | Minimum inhibitory concentration [12] [mg/L] | Minimum inhibitory concentration [13] [mg/L]
1 | CC(C)C[C@H]1NC(=O)[C@H](CCN)NC(=O)[C@@H](NC(=O)[C@H](CN)NC(=O)[C@@H](NC(=O)[C@H](CCN)NC(=O)c2ccnc(C(F)(F)F)c2)[C@@H](C)O)CCNC(=O)[C@H]([C@@H](C)O)NC(=O)[C@H](CCN)NC(=O)[C@H](CCN)NC(=O)[C@H]([C@@H](C)O)NC1=O [Compound 32] (X9-[Dab]T[Dap][Dab][Dab][dL]T[Dab][Dab]T; lactam 4-C; N-terminus assumed) | 4 (≈ 3.4 µM) | 1 (≈ 0.85 µM) | 1 (≈ 0.85 µM) | <0.125 | 2 (≈ 1.7 µM) | 1 (≈ 0.85 µM) | 0.5 (≈ 0.425 µM) | 1 (≈ 0.85 µM) | 0.5 (≈ 0.425 µM) | 0.25 (≈ 0.213 µM) | 0.5 (≈ 0.425 µM) | 0.5 (≈ 0.425 µM) | 1 (≈ 0.85 µM)
2 | CC[C@@H]1NC(=O)[C@@H](CC(C)C)NC(=O)[C@H](CCN)NC(=O)[C@@H](NC(=O)[C@H](CN)NC(=O)[C@@H](NC(=O)[C@H](CCN)NC(=O)c2sccc2Cl)[C@@H](C)O)CCNC(=O)[C@H]([C@@H](C)O)NC(=O)[C@H](CCN)NC(=O)[C@H](CCN)NC1=O [Compound 89] (X71-[Dab]T[Dap][Dab][Dab][dL][Abu][Dab][Dab]T; lactam 4-C) | 4 (≈ 3.53 µM) | <0.125 | <0.125 | <0.125 | 4 (≈ 3.53 µM) | 0.25 (≈ 0.221 µM) | 0.25 (≈ 0.221 µM) | <0.125 | <0.125 | 0.25 (≈ 0.221 µM) | 1 (≈ 0.884 µM) | 0.25 (≈ 0.221 µM) | 2 (≈ 1.77 µM)
3 | CC[C@@H]1NC(=O)[C@@H](CC(C)C)NC(=O)[C@H](CCN)NC(=O)[C@@H](NC(=O)[C@H](CN)NC(=O)[C@@H](NC(=O)[C@H](CCN)NC(=O)c2cnc(Br)s2)[C@@H](C)O)CCNC(=O)[C@H]([C@@H](C)O)NC(=O)[C@H](CCN)NC(=O)[C@H](CCN)NC1=O [Compound 91] (X60-[Dab]T[Dap][Dab][Dab][dL][Abu][Dab][Dab]T; lactam 4-C) | 2 (≈ 1.7 µM) | 0.5 (≈ 0.425 µM) | 0.5 (≈ 0.425 µM) | <0.125 | 2 (≈ 1.7 µM) | 0.5 (≈ 0.425 µM) | 0.5 (≈ 0.425 µM) | 0.5 (≈ 0.425 µM) | 1 (≈ 0.849 µM) | 0.5 (≈ 0.425 µM) | 1 (≈ 0.849 µM) | 0.5 (≈ 0.425 µM) | 1 (≈ 0.849 µM)
4 | CC[C@@H]1NC(=O)[C@@H](CC(C)C)NC(=O)[C@H](CCN)NC(=O)[C@@H](NC(=O)[C@H](CN)NC(=O)[C@@H](NC(=O)[C@H](CCN)NC(=O)c2cc(C)nc(Cl)c2)[C@@H](C)O)CCNC(=O)[C@H]([C@@H](C)O)NC(=O)[C@H](CCN)NC(=O)[C@H](CCN)NC1=O [Compound 39] (X28-[Dab]T[Dap][Dab][Dab][dL][Abu][Dab][Dab]T; lactam 4-C) | 1 (≈ 0.877 µM) | 1 (≈ 0.877 µM) | 0.5 (≈ 0.438 µM) | <0.125 | 1 (≈ 0.877 µM) | 0.5 (≈ 0.438 µM) | 0.5 (≈ 0.438 µM) | 1 (≈ 0.877 µM) | 0.5 (≈ 0.438 µM) | 0.5 (≈ 0.438 µM) | 1 (≈ 0.877 µM) | 0.5 (≈ 0.438 µM) | 0.5 (≈ 0.438 µM)
